Measurements taken from US5321030A, “Creatine analogs having antiviral activity” (priority 1991, dated 1994).
Converted amounts (≈) assume the structure as drawn. “And” between values parts separate entries of the source, which are not always exact repeats. Equal entries are not always repeated. Where two headings read alike, the source gives them in different places.

Legend:
[1] = tested on: Influenza B/Hong Kong/5/72; test: CPE-reduction assay, Influenza B in MDCK cells; assay type: cell-based; conditions: 62.5 μg/ml-4 mg/ml; only at the highest concentration
Procedure: Cyclocreatine was prepared at a concentration of 100 mg/ml in MEM, without serum, 0.18% NaHCO3, 50 μg/ml gentamicin. Further dilutions (2-fold dilution scheme) were made in MEM without serum.
Cells (0.2 ml/well) were seeded in 96-well flat bottom tissue culture plates, (Corning Glass Works, Corning, N.Y.). The cells were incubated overnight in order to establish cell monolayers. Growth medium was decanted from the 96-well plates and various dilutions of compound were added to wells of the plate (4 wells/dilution; 0.1 ml/well). Medium alone was added to uninfected cell and virus (no drug) control wells (0.1 ml/well). Virus, diluted in test medium (0.1 ml final volume), was added to all compound test wells of the plate (3 wells/dilution) and to 9 virus control wells. Test medium (0.1 ml/well) without virus was added to all toxicity control wells (1 well/dilution for each compound tested) and to 3 uninfected cell control wells.
The plates were incubated at 37° C. until virus control wells (no drug) had CPE readings near 100% CPE. Cells were then examined microscopically for virus CPE and graded on a scale of 0-4, with 0 being no CPE and 4 being 100% CPE. The cells in toxicity control wells were observed microscopically and graded for morphological changes due to cytotoxicity. […]

Vero cells = conditions: monkey
HSV-2 = test: Cytopathic effect (CPE) assay, HSV-2
[2] = tested on: Influenza A/Port Chalmers/1/73 (H3 N2); test: CPE-reduction assay, Influenza A in MDCK cells; assay type: cell-based; conditions: 62.5 μg/ml-4 mg/ml
in vivo = assay type: in vivo
[3] = tested on: Vesicular stomatitis virus (VSV), Indiana strain; assay type: cell-based; conditions: 62.5 μg/ml-4 mg/ml; Vero cells and BHK-21 cells; scale 0-4; no drug controls 4.0
[4] = Dietary feeding of cyclocreatine, tolerance and uptake; conditions: mice, up to 1% of diet for 2 weeks or over 4 weeks
[5] = tested on: Herpes Simplex Virus, Type 1, strain BW10168 (TK-); test: microbe, parasite or virus in culture; assay type: cell-based; design: TI50 (CD50 ÷ ED50): unit not given beside the values; conditions: for Average CPE: virus controls 4.0; for EC50: Human alphaherpesvirus 1, Vero
[6] = tested on: Guinea Pig Cytomegalovirus, Strain 22122; test: CPE reduction assay, guinea pig cytomegalovirus in GPE cells; assay type: cell-based; design: TI50 (CD50 ÷ ED50): unit not given here; conditions: for Average CPE: virus controls 4.0
Adenovirus type 5 = test: CPE assay, adenovirus in DU 145 cells; assay type: cell-based; conditions: 0.3125-10 mg/ml, FIG. 15A
Procedure: Adenovirus type 5 was obtained from the ATCC. DU 145 cells were obtained from the American Type Culture Collection. Cells were infected with virus and cyclocreatine was assayed for antiviral activity using the cytopathic effect (CPE) assay essentially as described in Example 1.

[7] = Cytotoxicity in plaque reduction assay, Hs68 cells; assay type: cell-based; conditions: human, Table 5, read-out: CD50 (the source's name)
Procedure: (§1) Cytotoxicity was determined by examination of cells (located away from plaques) in infected wells which had been treated with drug.

[8] = Cytotoxicity in plaque reduction assay, MRC-5 cells; assay type: cell-based, human; conditions: human, mrc-5 cells, read-out: CD50 (the source's name)
Procedure: as §1

MRC-5 cells = test: as above; assay type: cell-based, human; conditions: HCMV experiments, 8 days of exposure
Procedure: as §1

[9] = tested on: Varicella-Zoster Virus, strain Oka; test: microbe, parasite or virus in culture; assay type: cell-based; design: TI50 (CD50 ÷ ED50): unit not given beside the values
in vitro = conditions: monkey, vero cells
[10] = Human alphaherpesvirus 3, CV-1, read-out: % Reduction
[11] = Human alphaherpesvirus 3, MRC5, read-out: % Reduction

In the case of `NC1=NCCN1CC(=O)O` [cyclocreatine, 1-carboxymethyl-2-iminoimidazolidine], the “effect on CPE” value [1] is reported as “slight inhibitory effect”, the CC50 (Vero cells) is reported as greater than 28 mM and the CD50 (Vero cells) is reported as “greater than 4 mg/ml”. For the same compound, the EC50 (HSV-2; Human alphaherpesvirus 2, Vero, read-out: ED50) was 1690 µg/mL and 11 mM, the EC (60 or 70) (HSV-2; Human alphaherpesvirus 2, Vero, read-out: concentration required to inhibit cytopathogenicity by 60% or 70%) was 35000 µM and the “effect on cytopathic effect” value (HSV-2; contact-inhibited A459 cells) was “inhibited the cytopathic effect”. The “effect on cytopathic effect” value (HSV-2; contact-inhibited BalbC/3T3 cells, FIG. 4A) was “inhibited the cytopathic effect”, the “effect on cytopathic effect” value (HSV-2; serum-starved DU145 cells, FIG. 6A) was “inhibited the cytopathic effect” and the TI (HSV-2; serum-starved Vero cells) was greater than 5.5. For the same compound, the “effect on cytopathic effect” value (HSV-2; serum-starved Vero cells, FIG. 2A) was “inhibits the cytopathic effect”, the antiviral activity [2] was “did not display significant antiviral activity” and the “tolerance in the diet” value (in vivo; 1% in mouse chow) was “well-tolerated”. For the same compound, the “tolerance in toxicity control” value (in vivo; cream topical, sham-infected mice) was “well-tolerated and caused no adverse effects to the vaginal area”, the survival (in vivo; mouse, in vivo, 1 %, read-out: Survivors/Total (%)) was 100% and the “Weight Change” value (in vivo; uninfected, AM-285 1% dietary, combined animal weights day 0 to day 15) was 7.8 g. The CPE grade [3] was 4.0, the “tolerance of dietary cyclocreatine” value [4] was “without gross adverse effects” and the “Average CPE” value ([5]; AM-285 62.5 μg/ml) was 3.2. For the same compound, the “Average CPE” value ([5]; AM-285 125 μg/ml) was 3.5, the “Average CPE” value ([5]; AM-285 260 μg/ml) was 3.2 and the “Average CPE” value ([5]; AM-285 500 μg/ml) was 1.7. For the same compound, the “Average CPE” value ([5]; AM-285 1000 μg/ml) was 1.8, the “Average CPE” value ([5]; AM-285 2000 μg/ml) was 2.0 and the “Average CPE” value ([5]; AM-285 4000 μg/ml) was 0.7. The EC50 ([5]; read-out: ED50, Vero cells, Table 8) was 384 µg/mL (≈ 2.69 mM), the EC50 ([5]; read-out: ED50, as stated in text) was ~900 µg/mL and ~6.3 mM and the “TI50 (CD50 ÷ ED50)” value ([5]; Vero cells, Table 8) was greater than 4.5. The “Average CPE” value ([6]; AM-285 156.25 μg/ml) was 4.0, the “Average CPE” value ([6]; AM-285 312.5 μg/ml) was 4.0 and the “Average CPE” value ([6]; AM-285 625 μg/ml) was 3.5. The “Average CPE” value ([6]; AM-285 1250 μg/ml) was 3.3, the “Average CPE” value ([6]; AM-285 2500 μg/ml) was 2.5 and the “Average CPE” value ([6]; AM-285 5000 μg/ml) was 1.7. For the same compound, the “Average CPE” value ([6]; AM-285 10000 μg/ml) was 0.0, the EC50 ([6]; Caviid betaherpesvirus 2, GPE cells, Table 3, read-out: ED50 (the source's name)) was 3270 µg/mL (≈ 22.9 mM) and the “TI50 (CD50 ÷ ED50)” value ([6]; GPE cells, Table 3) was greater than 3.0. The “effect on CPE” value ([6]; between 0.625 and 5.0 mg/ml) was “An inhibitory effect”, the “effect on cytopathic effect” value (Adenovirus type 5) was “inhibited the cytopathic effect” and the CC50 [7] was greater than 4000 µg/mL. It also gave a CC50 ([8]; Table 4) greater than 4000 µg/mL, a CC50 ([8]; Table 6) greater than 10000 µg/mL and a CC50 ([8]; Table 7) greater than 10000 µg/mL. For the same compound, the CC50 ([8]; Table 9A) was greater than 4000 µg/mL, the visible cytotoxicity (MRC-5 cells) was “no visible signs of cytotoxicity” and the “TI50 (CD50 ÷ ED50)” value ([9]; CV-1 cells, Table 9B) was ~ 54. For the same compound, the “# Plaques” value ([9]; CV-1 cells, AM-285 156 μg/ml, virus control 70.25 ± 6.9) was 28.5, the “# Plaques” value ([9]; CV-1 cells, AM-285 312.5 μg/ml, virus control 70.25 ± 6.9) was 12 and the “# Plaques” value ([9]; CV-1 cells, AM-285 625 μg/ml, virus control 70.25 ± 6.9) was 3. The “# Plaques” value ([9]; CV-1 cells, AM-285 1250 μg/ml, virus control 70.25 ± 6.9) was 1, the “# Plaques” value ([9]; CV-1 cells, AM-285 2500 μg/ml, virus control 70.25 ± 6.9) was 0 and the “# Plaques” value ([9]; CV-1 cells, AM-285 5000 μg/ml, virus control 70.25 ± 6.9) was 0. The “# Plaques” value ([9]; CV-1 cells, AM-285 10000 μg/ml, virus control 70.25 ± 6.9) was 0, the inhibition at 156 µg/mL [9, 10] was 59% and the inhibition at 312.5 µg/mL [9, 10] was 83%. It also gave an inhibition at 625 µg/mL [9, 10] of 96%, an inhibition at 1250 µg/mL [9, 10] of 98% and an inhibition at 2500 µg/mL [9, 10] of 100%. For the same compound, the inhibition at 5000 µg/mL [9, 10] was 100%, the inhibition at 10000 µg/mL [9, 10] was 100% and the EC50 ([9]; Human alphaherpesvirus 3, CV-1, read-out: ED50) was less than 156 µg/mL. It also gave an EC50 ([9]; Human alphaherpesvirus 3, CV-1, read-out: ED50, approximate value in parentheses) of roughly 107 µg/mL (≈ 0.747 mM), an inhibition at 62.5 µg/mL [9, 11] of 0% and an inhibition at 125 µg/mL [9, 11] of 0%. The inhibition at 260 µg/mL [9, 11] was 36%, the inhibition at 500 µg/mL [9, 11] was 42% and the inhibition at 1000 µg/mL [9, 11] was 71%. The inhibition at 2000 µg/mL [9, 11] was 91%, the inhibition at 4000 µg/mL [9, 11] was 100% and the EC50 ([9]; Human alphaherpesvirus 3, MRC5, read-out: ED50) was 564 µg/mL (≈ 3.94 mM). For the same compound, the “TI50 (CD50 ÷ ED50)” value ([9]; MRC-5 cells, Table 9A) was greater than 7.1, the “# Plaques” value ([9]; MRC-5 cells, AM-285 62.5 μg/ml, virus control 32.7 ± 9.3) was 26 and the “# Plaques” value ([9]; MRC-5 cells, AM-285 125 μg/ml, virus control 32.7 ± 9.3) was 26. The “# Plaques” value ([9]; MRC-5 cells, AM-285 260 μg/ml, virus control 32.7 ± 9.3) was 21, the “# Plaques” value ([9]; MRC-5 cells, AM-285 500 μg/ml, virus control 32.7 ± 9.3) was 19 and the “# Plaques” value ([9]; MRC-5 cells, AM-285 1000 μg/ml, virus control 32.7 ± 9.3) was 9.5. For the same compound, the “# Plaques” value ([9]; MRC-5 cells, AM-285 2000 μg/ml, virus control 32.7 ± 9.3) was 3, the “# Plaques” value ([9]; MRC-5 cells, AM-285 4000 μg/ml, virus control 32.7 ± 9.3) was 0 and the CC50 (in vitro) was > 4000 µg/mL and > 28 mM.
